Measured values from publication PMC9705435, “Thiocarbazate building blocks enable the construction of azapeptides for rapid development of therapeutic candidates” (Nature Communications, 2022).
Where “and” joins values, the source holds several entries; their conditions need not be identical. Equal values may be shown once. Numbered stars: 1 amine (or outer) side, 2 acyl side, 3 side chain; on linkers, the order of the positions; unused ones are H or OH. Square brackets hold non-standard residues; d marks the D form. Peptide text beside a SMILES is read from it. * marks the point of attachment. azaPhe = O=C(N(Cc1ccccc1)N[*:1])[*:2]; azaPro = O=C(N1CCCN1[*:1])[*:2]; X1 = N=C(N)NCCCN(N)C(=O)*; azaGly = NNC(=O)O

Legend:
in vitro = details: male, C57BL/6J, mouse, blood
HMGB1/MD-2 binding = target: T1, HMGB1/MD-2 binding (Homo sapiens, UniProt Q9Y6Y9); assay: SPR HMGB1/MD-2 binding inhibition assay; details: immobilized disulfide HMGB1, MD-2 0.25 µM
T1 construct: purchased R&D Systems 1787-MD
T1 sequence (Q9Y6Y9 17-160 limits assumed): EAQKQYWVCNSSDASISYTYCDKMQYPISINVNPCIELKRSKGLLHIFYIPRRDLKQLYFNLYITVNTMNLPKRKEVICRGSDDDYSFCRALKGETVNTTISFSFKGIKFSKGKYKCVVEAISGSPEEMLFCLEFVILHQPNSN

[1] = target: T2, Human B2 (h) receptor (B2R) (Homo sapiens, UniProt P30411); assay: Human B2 (h) (agonist radioligand) receptor binding assay, [3H]bradykinin displacement
T2 construct: host or cells: CHO cells
T2 sequence (P30411 1-391): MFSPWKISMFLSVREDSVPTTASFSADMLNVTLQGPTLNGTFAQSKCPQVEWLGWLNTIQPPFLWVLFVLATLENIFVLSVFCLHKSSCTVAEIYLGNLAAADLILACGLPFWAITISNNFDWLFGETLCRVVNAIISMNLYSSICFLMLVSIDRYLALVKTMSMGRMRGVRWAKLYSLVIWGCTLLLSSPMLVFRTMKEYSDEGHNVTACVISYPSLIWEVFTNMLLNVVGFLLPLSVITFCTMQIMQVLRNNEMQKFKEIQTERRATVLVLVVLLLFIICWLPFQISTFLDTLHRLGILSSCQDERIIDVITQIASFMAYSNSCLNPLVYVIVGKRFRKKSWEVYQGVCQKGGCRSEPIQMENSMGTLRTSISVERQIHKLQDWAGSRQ
Description: The data was collected by CRO Eurofins Cerep (France) and the result is attached as an additional data file. B2R radioligand agonist binding displacement assay for determination of IC-50.
Test compounds (FI-U / [azaP2, azaF8-BK (70), FI-2V / azaF8-BK (68), and FI-8G / azaP2-BK (63)) were supplied to Eurofins in a blinded manner and run at five concentrations to determine the IC-50’s. Standard company control test compounds were used for assay validation. Experimental assays achieved inhibition of more than 50% and were considered to represent significant effects of the test compounds.
(B2(h)) was used as the agonist for B2R receptor binding. The results are expressed as a percent of control specific binding (measured specific binding /control specific binding)*100, and as a percent inhibition of control specific binding (100 minus (measured specific binding/ control specific binding)*100) obtained in the presence of the test compounds. The IC50 values (concentration causing a half-maximal inhibition of control specific binding) and Hill coefficients (nH) were determined by non-linear regression analysis of the competition curves generated with mean replicate values using Hill equation curve fitting Y=D+[ A-D / 1+(C/C50) nH] where Y = specific binding, A = left asymptote of the curve, D = right asymptote of the curve, C = compound concentration, C50 = IC50, and nH = slope factor. This analysis was performed using software developed at Cerep (Hill software) and validated by comparison with data generated by the commercial software SigmaPlot® 4.0 for […]
The inhibition constants (Ki) were calculated using the Cheng Prusoff equation. Ki=IC50/(1+L/Kd) where L = concentration of radioligand in the assay, and Kd = affinity of the radioligand for the receptor. A scatchard plot is used to determine the Kd. […]
9.1. Experimental Conditions
9.1.1. In Vitro Pharmacology: Binding Assays
Assay Source Ligand Conc. Kd Non Specific Incubation Detection Bibl.
(agonist recombinant (1 µM) RT counting
9.2. Analysis and expression of results
9.2.1. In Vitro Pharmacology: Binding Assays
The results are expressed as a percent of control specific binding measured specific binding *100 […]
and as a percent inhibition of control specific binding
100-( measured specific binding *100) […]
obtained in the presence of the test compounds.
The IC50 values (concentration causing a half-maximal inhibition of control specific binding) and Hill coefficients (nH) were determined by non-linear regression analysis of the competition curves generated with mean replicate values using Hill equation […]
where Y = specific binding, A = left asymptote of the curve, D = right asymptote of the curve, C = compound concentration, C50 = IC50, and nH = slope factor. This analysis was performed using software developed at Cerep (Hill software) and validated by […]
The inhibition constants (Ki ) were calculated using the Cheng Prusoff equation where L = concentration of radioligand in the assay, and KD = affinity of the radioligand for the receptor. A scatchard plot is used to […]

3T3 cells = target: T3, 3T3 cells (Mus musculus, UniProt P32299); assay: PGE2 induction in 3T3 fibroblasts (ELISA); assay type: cell-based; details: 7 min, serum-free medium
T3 sequence (P32299 1-392): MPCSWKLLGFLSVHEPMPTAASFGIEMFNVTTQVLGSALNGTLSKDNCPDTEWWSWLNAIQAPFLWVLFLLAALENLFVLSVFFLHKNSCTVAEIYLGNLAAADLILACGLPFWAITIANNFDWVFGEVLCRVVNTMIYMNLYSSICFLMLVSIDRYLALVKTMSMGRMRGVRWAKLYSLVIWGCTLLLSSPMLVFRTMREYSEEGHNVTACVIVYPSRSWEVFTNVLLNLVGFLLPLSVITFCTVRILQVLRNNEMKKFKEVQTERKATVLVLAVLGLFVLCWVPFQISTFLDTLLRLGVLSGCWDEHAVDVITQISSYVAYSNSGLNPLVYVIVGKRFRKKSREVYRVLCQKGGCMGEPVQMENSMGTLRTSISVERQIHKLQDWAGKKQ
Description: Subconfluent monolayers of 3T3 cells were incubated with test compounds for 7 min in serum-free medium and supernatants were collected and analyzed for PGE2 by ELISA.
5.1 In vitro PGE2 induction
3T3 Swiss Albino cell line (ATCC CCL-92) was purchased from American Type Culture Collection (Manassas, VA).
Following trypsinization, cells were washed and resuspended in DMEM-Complete at a cell density of 0.03 x 10^6 cells per ml. Cells were seeded into 96 -well flat-bottomed culture plates (6 x 10^3 cells per well in 200 µl). After one day of culture, 3T3 cell monolayers were washed two times in pre-warmed DMEM supplemented with 20 mM HEPES (DMEM-HEPES) and DMEM-HEPES
supernatants were collected and immediately frozen at -20°C for future PGE2 analyses. PGE2 levels in supernatants were determined using PGE2 ELISA kit (Enzo Life Sciences, Farmingdale, NY) following manufacturer’s instructions. Samples were assayed in quadruplicate. PGE2 ELISA data were analyzed using GraphPad Prism Version 9.3.1.

N=C(N)NCCC[C@H](NC(=O)[C@H](Cc1ccccc1)NC(=O)[C@@H]1CCCN1C(=O)[C@H](CO)NC(=O)[C@H](Cc1ccccc1)NC(=O)NNC(=O)[C@@H]1CCCN1C(=O)[C@@H]1CCCN1C(=O)[C@@H](N)CCCNC(=N)N)C(=O)O [Compound 65, RPPazaG^4FSPFR] (H-RPP[azaGly]FSPFR-OH; N-terminus and C-terminus assumed)
half-life (in vitro): 4.33 ± 1.3 min

NN(Cc1ccccc1)C(=O)N[C@@H](CO)C(=O)N[C@@H](CO)C(=O)N[C@@H](CCC(=O)O)C(=O)O [Compound 54, azaF^1SSE-OH]
half-life (in vitro): > 120 min
IC50 (HMGB1/MD-2 binding): 0.127 µM

N=C(N)NCCC[C@H](NC(=O)[C@H](Cc1ccccc1)NC(=O)[C@@H]1CCCN1C(=O)[C@H](CO)NC(=O)[C@H](Cc1ccccc1)NC(=O)CNC(=O)N1CCCN1C(=O)[C@@H]1CCCN1C(=O)[C@@H](N)CCCNC(=N)N)C(=O)O [Compound 64, RPazaP^3GFSPFR]
half-life (in vitro): 2.63 ± 0.25 min

N=C(N)NCCC[C@H](NC(=O)N(Cc1ccccc1)NC(=O)[C@@H]1CCCN1C(=O)[C@H](CO)NC(=O)[C@H](Cc1ccccc1)NC(=O)CNC(=O)[C@@H]1CCCN1C(=O)[C@@H]1CCCN1C(=O)[C@@H](N)CCCNC(=N)N)C(=O)O [Compound 68, RPPGFSPazaF^8R] (H-RPPGFSP[azaPhe]R-OH; N-terminus and C-terminus assumed)
IC50 [1]: 0.0088 µM
Ki [1]: 0.0041 µM
% Inhibition of Control Specific Binding, 1st ([1]; 1.0E-06 M): 99.7%
% Inhibition of Control Specific Binding, 2nd ([1]; 1.0E-06 M): 100.1%
% Inhibition of Control Specific Binding, Mean ([1]; 1.0E-06 M): 99.9%
% Inhibition of Control Specific Binding, 1st ([1]; 1.0E-07 M): 98.0%
% Inhibition of Control Specific Binding, 2nd ([1]; 1.0E-07 M): 95.2%
% Inhibition of Control Specific Binding, Mean ([1]; 1.0E-07 M): 96.6%
% Inhibition of Control Specific Binding, 1st ([1]; 1.0E-08 M): 61.5%
% Inhibition of Control Specific Binding, 2nd ([1]; 1.0E-08 M): 66.7%
% Inhibition of Control Specific Binding, Mean ([1]; 1.0E-08 M): 64.1%
% Inhibition of Control Specific Binding, 1st ([1]; 1.0E-09 M): 8.0%
% Inhibition of Control Specific Binding, 2nd ([1]; 1.0E-09 M): 2.9%
% Inhibition of Control Specific Binding, Mean ([1]; 1.0E-09 M): 5.4%
% Inhibition of Control Specific Binding, 1st ([1]; 3.0E-08 M): 72.4%
% Inhibition of Control Specific Binding, 2nd ([1]; 3.0E-08 M): 64.6%
% Inhibition of Control Specific Binding, Mean ([1]; 3.0E-08 M): 68.5%
half-life (in vitro): 39.3 ± 2.5 min
EC50 (3T3 cells): 0.0996 µM

N=C(N)NCCC[C@@H](N)C(=O)N[C@@H](CCCNC(=N)N)C(=O)N1CCC[C@H]1C(=O)N1C[C@H](O)C[C@H]1C(=O)NCC(=O)N[C@@H](Cc1ccccc1)C(=O)N[C@@H](CO)C(=O)N[C@H](Cc1ccccc1)C(=O)N[C@@H](Cc1ccccc1)C(=O)N[C@@H](CCCNC(=N)N)C(=O)O [NPC 567, reference compound]
nH (Hill coefficient) ([1]; Eurofins Cerep report): 0.6 and 0.9

N=C(N)NCCC[C@H](NC(=O)[C@H](Cc1ccccc1)NC(=O)N1CCCN1C(=O)[C@H](CO)NC(=O)[C@H](Cc1ccccc1)NC(=O)CNC(=O)[C@@H]1CCCN1C(=O)[C@@H]1CCCN1C(=O)[C@@H](N)CCCNC(=N)N)C(=O)O [Compound 67, RPPGFSazaP^7FR] (H-RPPGFS[azaPro]FR-OH)
half-life (in vitro): 2.38 ± 0.03 min

NC(=O)CCN(NC(=O)[C@H](CO)NC(=O)[C@H](CO)NC(=O)N(N)Cc1ccccc1)C(N)=O [Compound 57, azaF^1SSazaQ^4-NH2]
half-life (in vitro): > 120 min
IC50 (HMGB1/MD-2 binding): 0.083 µM

N=C(N)NCCC[C@H](N)C(=O)N1CCC[C@H]1C(=O)N1CCC[C@H]1C(=O)NCC(=O)N[C@@H](Cc1ccccc1)C(=O)N[C@@H](CO)C(=O)N1CCC[C@H]1C(=O)N[C@@H](Cc1ccccc1)C(=O)NN(CCCNC(=N)N)C(=O)O [Compound 69]
half-life (in vitro): 42.6 ± 0.8 min

N=C(N)NCCC[C@H](NC(=O)[C@H](Cc1ccccc1)NC(=O)[C@@H]1CCCN1C(=O)[C@H](CO)NC(=O)[C@H](Cc1ccccc1)NC(=O)CNC(=O)[C@@H]1CCCN1C(=O)[C@@H]1CCCN1C(=O)N(N)CCCNC(=N)N)C(=O)O [Compound 62] (X1-PPGFSPFR-OH)
half-life (in vitro): 2.46 ± 0.05 min

N=C(N)NCCC[C@H](NC(=O)N(Cc1ccccc1)NC(=O)[C@@H]1CCCN1C(=O)[C@H](CO)NC(=O)N(Cc1ccccc1)NC(=O)CNC(=O)[C@@H]1CCCN1C(=O)[C@@H]1CCCN1C(=O)[C@@H](N)CCCNC(=N)N)C(=O)O [Compound 71, RPPGazaF^5SPazaF^8R] (H-RPPG[azaPhe]SP[azaPhe]R-OH; N-terminus and C-terminus assumed)
half-life (in vitro): 106 ± 1.8 min

NC(N)=NCCC[C@H](NC(=O)[C@H](Cc1ccccc1)NC(=O)[C@@H]1CCCN1C(=O)[C@H](CO)NC(=O)[C@H](Cc1ccccc1)NC(=O)CNC(=O)[C@@H]1CCCN1C(=O)[C@@H]1CCCN1C(=O)[C@@H](N)CCCN=C(N)N)C(=O)O [Bradykinin, reference compound] (H-RPPGFSPFR-OH)
half-life (in vitro): 5.29 ± 0.5 min
EC50 (3T3 cells): 0.0444 µM

NC(=O)CCN(NC(=O)[C@H](CO)NC(=O)[C@H](CO)NC(=O)[C@@H](N)Cc1ccccc1)C(N)=O [Compound 58, FSSazaQ^4-NH2]
half-life (in vitro; Ex-vivo stability t 1/2): 2.9 ± 0.2 min
IC50 (HMGB1/MD-2 binding): 0.423 µM

NC(=O)N(CCC(=O)O)NC(=O)[C@H](CO)NC(=O)[C@H](CO)NC(=O)[C@@H](N)Cc1ccccc1 [Compound 53, FSSazaE^4-NH2]
half-life (in vitro; Ex-vivo stability t 1/2): 2.6 ± 0.11 min
IC50 (HMGB1/MD-2 binding): 0.397 µM

NC(=O)CC[C@H](NC(=O)[C@H](CO)NC(=O)[C@H](CO)NC(=O)N(N)Cc1ccccc1)C(=O)O [Compound 55, azaF^1SSQ-OH]
half-life (in vitro): 24.4 ± 1.6 min
IC50 (HMGB1/MD-2 binding): 0.159 µM

NC(=O)CC[C@H](NC(=O)[C@H](CO)NC(=O)[C@H](CO)NC(=O)N(N)Cc1ccccc1)C(N)=O [Compound 56, azaF^1SSQ-NH2]
half-life (in vitro): > 120 min
IC50 (HMGB1/MD-2 binding): 0.349 µM

N=C(N)NCCC[C@H](NC(=O)[C@H](Cc1ccccc1)NC(=O)[C@@H]1CCCN1C(=O)[C@H](CO)NC(=O)N(Cc1ccccc1)NC(=O)CNC(=O)[C@@H]1CCCN1C(=O)[C@@H]1CCCN1C(=O)[C@@H](N)CCCNC(=N)N)C(=O)O [Compound 66, RPPGazaF^5SPFR] (H-RPPG[azaPhe]SPFR-OH; N-terminus and C-terminus assumed)
half-life (in vitro): 14.7 ± 1.6 min

NC(=O)[C@H](CCC(=O)O)NC(=O)[C@H](CO)NC(=O)[C@H](CO)NC(=O)N(N)Cc1ccccc1 [Compound 52, azaF^1SSE-NH2]
half-life (in vitro): > 120 min
IC50 (HMGB1/MD-2 binding): 0.249 µM
